Consider 14 compounds from patent US20250223301A1, “KINASE INHIBITORS, PREPARATION METHODS AND USES THEREOF” (InventisBio Co., Ltd., priority 2022, published 2025).

Molecules are shown by their SMILES. Read-outs that look alike come from different tables or passages of the source.

The test system of data set [1] is PBMC. Nature of the data set: Human PBMC IL-2 assay. The format is cell-based. The note with it: anti-CD3/CD28 stimulation overnight, IL-2 level. A digest of the protocol:
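Healthy-donor frozen PBMC were thawed, rested 4 h at 37 °C and plated at ~200,000 cells/well. Cells were preincubated 60 min at 37 °C with compound solution (10 uM to 0.6 nM, 8 points, 4-fold, as added), then stimulated overnight with anti-CD3/CD28. Supernatant IL-2 was quantified by immunoassay kit and plotted against log compound concentration.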

Data set [2] relates to Jurkat cells. Briefly: Jurkat IL-2 assay. The format is cell-based. Particulars: Homo sapiens, anti-CD3/CD28 stimulation overnight, IL-2 level. The method in brief:
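Cells in RPMI-1640 with 10% FBS received compound solution (5 uM to 2.3 nM, 8 points, 3-fold dilution) for 60 minutes at 37° C. They were then stimulated overnight at 37° C. with anti-CD3/CD28 antibody. IL-2 in the supernatant was quantified by immunoassay kit and plotted against log compound concentration.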

The test system of data set [3] is whole blood from male C57BL6 mice. Nature of the data set: Mouse whole blood IFN-gamma assay. Format: cell-based. The note with it: anti-mouse CD3/CD28 0.6 ug/mL, 20 hours. The protocol:
The whole blood from male C57BL6 mice (6-8 weeks old, Beijing Vital River Laboratory Animal Technology Co., Ltd.) was collected, pooled and dispensed at 200 uL per well in a 96-well plate. The blood was treated with compounds for one hour at 37° C. in a humidified 5% CO2 incubator. The blood was then stimulated with anti-mouse CD3 and anti-mouse CD28 antibody (BioLegend Cat #100340, #102116) at a final concentration of 0.6 ug/mL for 20 hours at 37° C. in a humidified 5% CO2 incubator. The blood was spun down, IFN-gamma in the supernatants was measured using ELISA kit (Excellbio Cat #EM002-96, #EM007-96) according the manufacture's instruction.

In data set [4] the target is DGKz (Homo sapiens (Human), UniProt Q13574). Briefly: DGK ADP-Glo kinase assay (DGKz). Format: biochemical. Particulars: 5 nM DGKz, 15 uM ATP. The protocol: Luminescence was recorded using an Tecan SPARK microplate reader.
A general note: In ADP-Glo the light output rises with the ADP produced.

For data set [5], the target named is T1, DGKa (Homo sapiens (Human), UniProt P23743).
Protocol: (§1) The DGKa and DGKz kinase assays were performed using Promega ADP-Glo kit (Promega, Cat #V9102). One microliter test compound was added to a 384-well plate. Reactions were performed in a 5 uL volume by adding 2 uL mixture of DGK enzyme and ATP in assay buffer (50 mM MOPS pH 7.5, 100 mM NaCl, 10 mM MgCl2, 1 mM CaCl2, 0.0025% BSA, and 1 mM DTT). […] The enzyme solution was incubated with test compound at 25 ? for 20 min. […] The reaction was initiated by the addition of 2 uL of substrate solution (7 uM 1.2-dioleoyl-sn-glycerol, 5 mM octyl-b-D-glucopyranoside) in the 5 uL assay volume. The resulting mixture was incubated at 25° C. for 40 minutes. Next, 5 uL of ADP-Glo-reagent was added to the plate and incubated for 40 minutes. Then 10 uL of kinase detection reagent was added and incubated for 30 minutes. Luminescence was recorded using an Tecan SPARK microplate reader. 1% DMSO vehicle was used as control and no enzyme well was used as blank well.
Data set [6] can be described thus: Human microsomal clearance assay. The format is in vitro ADME. The note with it: pH 7.4; for CLint scaled at 1 μM: human, liver microsomes; for half-life at 1 μM: human liver microsomes 0.5 mg/mL, 1 uM compound. The protocol: This study aimed to assess the metabolic stability of a compound in human liver microsomes using a microsomal clearance assay.
A mixture containing 100 mM potassium phosphate, pH 7.4, 0.5 mg/mL liver microsomes, 2 mM NADPH, and 1 μM compound were prepared and added to 96-well plate. The plates were then incubated at 37 ? for different time points (0, 5, 15, 30, 45 minutes) and the reaction was stopped with acetonitrile solution containing an internal standard. The samples were then analyzed by LC/MS/MS to determine how much of the compound remained at each time point. The elimination rate constant and half-life were calculated from the data, and the in vitro intrinsic clearance (CLint) was determined as follows: […]

For data set [7], the target named is T1, DGKa. Briefly: biochemical.
Protocol: as §1
The subject of data set [8] is MC-38 murine colon adenocarcinoma cells. Briefly: In vivo efficacy in MC38 syngeneic mouse tumor model. Particulars: MC38, C57BL/6 mice; compound 67 0.6 mg/kg PO QD in combination with anti-PD-1 2 mg/kg i.p. twice per week. The protocol:
Murine colon adenocarcinoma cells MC-38 were obtained from American Type Culture Collection (ATCC) and cultured in RPMI 1640 media containing 10% fetal bovine serum (FBS) at 37° C. in a humidified 5% CO2 incubator. Female C57BL/6 mice (20 2 g, 6-8 weeks old) were purchased from SPF Biotechnology Co., Ltd. (Beijing, China). MC-38 cells were collected from flask and suspended in PBS. Suspension of 1×10^6 cells in 0.1 mL culture media without FBS was injected subcutaneously into animal armpits. Once the tumor reached 100-150 mm^3, the mice were randomized into different groups and treatment was initiated. Mice were treated orally once per day (PO, QD) with compound 67 (0.6 mg/kg) or vehicle control. Anti-PD-1 antibody (BioXcell, Cat #BE0273) was diluted with PBS for dosing at 2 mg/kg and was administrated via intraperitoneal injection, twice per week. Tumor volume and body weight of mice were recorded twice per week.
All animals were housed in a room maintained at 23±3° C., 65%-75% humidity, with a controlled 12 h light-dark cycle for 5-7 days before experiments. Water and commercial laboratory complete food for mice were provided in the cage.
Tumor volume was calculated by measuring two perpendicular diameters using the following formula: (L×W^2)/2, in which L and W refer to the length and width tumor diameter, respectively.

For data set [9], the system named is CT26 murine colorectal adenocarcinoma cells. Nature of the data set: In vivo efficacy in CT26 syngeneic mouse tumor model. The note with it: CT26, BALB/c mice; 3 mg/kg PO QD. How it is done: Murine colorectal adenocarcinoma cells CT26 (purchased from ATCC) were cultured in RPMI 1640 medium with 10% FBS. For tumor implantation, 6-8 weeks old BALB/c female mice (Beijing Vital River Laboratory Animal Technology Co., Ltd.) were given a subcutaneous injection of CT26 cell (1×10^7 cells/mL) in 0.1 mL suspension into the right flank. Once tumors grew to a volume of 50-100 mm3, mice were randomized into different groups and treatment was initiated. Mice were treated orally once per day (PO, QD) with DGK inhibitors (3 mg/kg) or vehicle control. Anti-PD-1 antibody (BioXcell, Cat #BE0273), anti-CTLA4 antibody (BioXcell, Cat #BE0164) were diluted with PBS for dosing at 10 mg/kg or 5 mg/kg, respectively. Antibody was administrated via intraperitoneal injection, twice per week. Tumor volume and body weight of mice were recorded twice per week.
All animals were housed in a room maintained at 23:3° C., 65%-75% humidity, with a controlled 12 h light-dark cycle for 5-7 days before experiments. Water and commercial laboratory complete food for mice were provided in the cage.

Chain of DGKz (Q13574 whole entry): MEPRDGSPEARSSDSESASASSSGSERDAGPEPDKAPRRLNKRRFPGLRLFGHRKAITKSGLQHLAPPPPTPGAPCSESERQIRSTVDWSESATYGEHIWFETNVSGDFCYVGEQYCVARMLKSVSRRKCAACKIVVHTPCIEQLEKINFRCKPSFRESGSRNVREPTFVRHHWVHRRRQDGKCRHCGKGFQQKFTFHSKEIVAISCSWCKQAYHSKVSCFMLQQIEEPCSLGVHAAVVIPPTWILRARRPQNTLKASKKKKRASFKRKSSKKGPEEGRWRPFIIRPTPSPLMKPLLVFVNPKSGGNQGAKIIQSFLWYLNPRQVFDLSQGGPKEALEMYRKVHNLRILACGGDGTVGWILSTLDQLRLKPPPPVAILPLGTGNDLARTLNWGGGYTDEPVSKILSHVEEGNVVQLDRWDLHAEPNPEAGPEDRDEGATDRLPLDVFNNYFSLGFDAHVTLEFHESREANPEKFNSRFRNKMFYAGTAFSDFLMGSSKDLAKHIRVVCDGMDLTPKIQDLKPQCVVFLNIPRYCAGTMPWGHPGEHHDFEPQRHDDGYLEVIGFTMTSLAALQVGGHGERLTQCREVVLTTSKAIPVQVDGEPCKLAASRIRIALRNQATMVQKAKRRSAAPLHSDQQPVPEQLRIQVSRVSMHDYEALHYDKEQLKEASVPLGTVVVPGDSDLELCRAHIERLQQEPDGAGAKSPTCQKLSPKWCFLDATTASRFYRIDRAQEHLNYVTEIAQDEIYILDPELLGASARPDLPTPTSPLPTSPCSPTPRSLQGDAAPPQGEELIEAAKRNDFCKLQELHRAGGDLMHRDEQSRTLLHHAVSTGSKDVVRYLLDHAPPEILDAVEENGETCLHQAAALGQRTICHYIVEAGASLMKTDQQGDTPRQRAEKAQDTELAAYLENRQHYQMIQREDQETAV
T1 sequence (P23743 whole entry): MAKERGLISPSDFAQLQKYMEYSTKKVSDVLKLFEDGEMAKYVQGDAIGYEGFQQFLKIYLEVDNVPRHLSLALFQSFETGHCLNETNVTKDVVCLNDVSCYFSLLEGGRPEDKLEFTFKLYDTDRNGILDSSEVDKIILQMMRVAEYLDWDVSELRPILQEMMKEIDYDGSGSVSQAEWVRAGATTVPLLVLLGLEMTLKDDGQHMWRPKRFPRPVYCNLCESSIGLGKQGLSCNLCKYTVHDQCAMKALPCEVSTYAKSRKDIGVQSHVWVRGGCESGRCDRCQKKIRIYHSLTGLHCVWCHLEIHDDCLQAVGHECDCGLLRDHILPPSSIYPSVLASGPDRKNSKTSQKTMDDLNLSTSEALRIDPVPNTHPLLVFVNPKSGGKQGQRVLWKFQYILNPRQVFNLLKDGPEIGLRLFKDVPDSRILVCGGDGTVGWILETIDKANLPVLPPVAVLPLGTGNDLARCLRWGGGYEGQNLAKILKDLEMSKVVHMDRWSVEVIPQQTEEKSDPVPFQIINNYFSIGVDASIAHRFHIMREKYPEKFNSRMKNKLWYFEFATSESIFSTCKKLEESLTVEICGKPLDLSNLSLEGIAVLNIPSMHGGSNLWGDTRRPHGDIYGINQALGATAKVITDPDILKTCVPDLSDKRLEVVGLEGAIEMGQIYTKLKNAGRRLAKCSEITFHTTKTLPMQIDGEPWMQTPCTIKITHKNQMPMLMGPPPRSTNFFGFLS

As to `CC[C@@H]1CN2c3c(c4nncn4c4ccc(C#N)nc34)OC[C@@H]2CN1[C@@H](CC)c1ccc(C(F)(F)F)cc1` [Compound 334], the EC50 in [1] was found to be 31 nM; in data set [2], 26 nM; in [3], 241 nM.

Consider `CC[C@H]1CN([C@@H](CC)c2ccc(C(F)(F)F)cc2)[C@H](CC)CN1c1nc2nncn2c2ccc(C#N)nc12` [Compound 34], for which the IC50 in data set [4] was found to be 42 nM; in data set [5], 16 nM. The EC50 worked out at 44 nM in data set [1], 67 nM in [2] and 335 nM in data set [3].

In data set [6], `Cn1c(=O)nc(N2CCC3(CC2)COC(c2ccc(OC(F)(F)F)cc2)=N3)c2nc(C#N)ccc21` [Compound 36] yielded a CLint scaled at 1 μM of 2.7 mL/min/kg and a half-life at 1 μM of 10.9 h.

In data set [4], `Cn1c(=O)nc(N2CCC3(CC2)CC(c2ccc(OC(F)(F)F)cc2)=NO3)c2nc(C#N)ccc21` [Compound 31] yielded an IC50 of 24 nM. Besides, in data set [6], the intrinsic clearance (CLint scaled) at 1 μM turned out to be 5.1 mL/min/kg and the half-life at 1 μM was 5.7 h. This compound also registered a half-maximal inhibitory concentration (IC50) in data set [5] of 20 nM.

`[2H]C([2H])([2H])n1c(=O)c2c(c3nc(C#N)ccc31)N1C[C@@H](CC)N([C@@H](CC)c3ccc(C(F)(F)F)cc3)C[C@H]1CO2` (stereo in doubt) [Compound 251]: in data set [1], a half-maximal response (EC50) required 50 nM. The same compound returned an EC50 in data set [2] of 51 nM. In data set [6], this compound gave an intrinsic metabolic clearance (CLint scaled) at 1 μM of 8.6 mL/min/kg and a half-life at 1 μM of 3.38 h.

On to `CC[C@@H](c1ccc(Cl)c(Cl)c1)N1C[C@H]2COc3c(c4nc(C#N)ccc4n(C)c3=O)N2C[C@H]1C` (stereo in doubt) [Compound 322], for which the figures for the EC50 in data set [1], in [2] and in data set [3] were 25 nM, 12 nM and 281 nM, respectively. The CLint scaled at 1 μM in data set [6] came to 12.4 mL/min/kg. For the same compound, the half-life at 1 μM in [6] is 2.35 h.

For the compound `CC[C@H]1CN([C@@H](CC)c2ccc(S(F)(F)(F)(F)F)cc2)[C@H](CC)CN1c1nc(=O)n(C)c2ccc(C#N)nc12` [Compound 28], the IC50 was found to be 50 nM in data set [4] and 12 nM in data set [7]. Also, the CLint scaled at 1 μM in data set [6] turned out to be 7.7 mL/min/kg. This compound also had a half-life at 1 μM in [6] of 3.75 h.

`CC[C@@H]1CN2c3c(c(=O)n(C)c4ccc(C#N)nc34)OC[C@@H]2CN1[C@@H](CC)c1ccc(S(F)(F)(F)(F)F)cc1` (stereo in doubt) [Compound 151]: in [1], the EC50 was 82 nM. This compound displayed a 50% effective concentration (EC50) in data set [2] of 32 nM. Further, in [6], the CLint scaled at 1 μM came to 4.1 mL/min/kg and the half-life at 1 μM turned out to be 7.13 h.

With `C[C@@H]1CN2c3c(c(=O)n(C)c4ccc(C#N)nc34)OC[C@@H]2CN1[C@@H](C)c1ccc(C(F)(F)F)cc1` (stereo in doubt) [Compound 223], the 50% effective concentration (EC50) in [1] was found to be 47 nM; in data set [2], 70 nM; in [3], 679 nM. This compound also had a CLint scaled at 1 μM in [6] of 18.3 mL/min/kg. The compound further displayed a half-life at 1 μM in data set [6] of 1.58 h.

Turning to `CC[C@@H]1CN2c3c(c(=O)n(C)c4ccc(C#N)nc34)OC[C@@H]2CN1[C@@H](CC)c1ccc(C(F)(F)F)c(Cl)c1` (stereo in doubt) [Compound 246], the results for the EC50 in [1], in [2] and in data set [3] were 23 nM, 30 nM and 265 nM, respectively. Moreover, the CLint scaled at 1 μM in [6] was 1.1 mL/min/kg. This compound also returned a half-life at 1 μM in data set [6] of 25.7 h.

Regarding `CC[C@@H]1CN2c3c(c(=O)n(C)c4ccc(C#N)nc34)OC[C@@H]2CN1[C@@H](CC)c1ccc(F)c(Cl)c1` (stereo in doubt) [Compound 197], the EC50 in data set [1] amounted to 78 nM; in data set [2], 39 nM; in data set [3] it was 312 nM.

In the case of `CC[C@@H]1CN2c3c(c(=O)n(C)c4ccc(C#N)nc34)OC[C@@H]2CN1[C@@H](CC)c1ccc(C(F)(F)F)cc1` [Compound 67], the IC50 in [4] came to 16 nM; in data set [7], 4 nM. Besides, the EC50 in data set [1] came out at 40 nM; in [2] it was 49 nM; in data set [3], 102 nM. The compound also returned a CLint scaled at 1 μM in data set [6] of 7.5 mL/min/kg. In data set [6], this compound registered a half-life at 1 μM of 3.88 h. The Tumor inhibition activity result in data set [8] is on record as “significantly better tumor inhibition activity than either of the single agents”.

As to `CC[C@@H]1CN2c3c(c(=O)n(C)c4ccc(C#N)nc34)OC[C@@H]2CN1[C@@H](CC)c1ccc(Cl)c(Cl)c1` (stereo in doubt) [Compound 250], the EC50 is 16 nM in [1], 32 nM in data set [2] and 144 nM in data set [3]. The compound also showed a CLint scaled at 1 μM in data set [6] of 12.3 mL/min/kg. The half-life at 1 μM in data set [6] turned out to be 2.37 h. Also, the Tumor growth result in data set [9] is recorded as “inhibit tumor growth”.

For `CC[C@@H]1CN2c3c(c(=O)n(C)c4ccc(C#N)nc34)CC[C@@H]2CN1[C@H](CC)c1ccc(C(F)(F)F)cc1` [Compound 332], the figures for the EC50 in data set [1] and in [2] were 64 nM and 130 nM, respectively. Further, the CLint scaled at 1 μM in [6] was 6.9 mL/min/kg. In [6], this compound displayed a half-life at 1 μM of 4.23 h.

Broadly, the EC50 is the concentration needed to bring the measured effect to its halfway point. The term IC50 denotes the concentration at which inhibition is half-maximal. Lower therefore signals inhibition by little substance. As a reminder, the CLint scaled is the rate of metabolic loss divided by the concentration. Higher therefore signals faster metabolism. Usually half-life stands for the time needed for the level to fall by half in the phase considered. Low readings indicate rapid decline, high ones slow decline.
